Data on nine compounds can be found in patent US9636418B2 (priority 2013, dated 2017).

Experiment in all cases: cell-based
One assay concerns the target hNav1.7 (Homo sapiens, UniProt Q15858). As to conditions: IonWorks Quattro; read-out: IC50 Nav1.7. (In general: Patch clamp records ionic current or voltage across a cell membrane.)
The next assay concerns the target hNav1.5 (Homo sapiens, UniProt Q14524). The settings on record: IonWorks Quattro; read-out: IC50 Nav1.5.
The next assay deals with hNav1.4 (Homo sapiens, UniProt P35499). The settings on record: for IC50: IonWorks Quattro, read-out: IC50 Nav1.4; for Nav1.4/Nav1.7: ratio of IonWorks Quattro IC50 values.
The target of another assay is hNav1.3 (Homo sapiens, UniProt Q9NY46). The settings on record: IonWorks Quattro; read-out: IC50 Nav1.3.
hNav1.3, sequence (Q9NY46 whole entry): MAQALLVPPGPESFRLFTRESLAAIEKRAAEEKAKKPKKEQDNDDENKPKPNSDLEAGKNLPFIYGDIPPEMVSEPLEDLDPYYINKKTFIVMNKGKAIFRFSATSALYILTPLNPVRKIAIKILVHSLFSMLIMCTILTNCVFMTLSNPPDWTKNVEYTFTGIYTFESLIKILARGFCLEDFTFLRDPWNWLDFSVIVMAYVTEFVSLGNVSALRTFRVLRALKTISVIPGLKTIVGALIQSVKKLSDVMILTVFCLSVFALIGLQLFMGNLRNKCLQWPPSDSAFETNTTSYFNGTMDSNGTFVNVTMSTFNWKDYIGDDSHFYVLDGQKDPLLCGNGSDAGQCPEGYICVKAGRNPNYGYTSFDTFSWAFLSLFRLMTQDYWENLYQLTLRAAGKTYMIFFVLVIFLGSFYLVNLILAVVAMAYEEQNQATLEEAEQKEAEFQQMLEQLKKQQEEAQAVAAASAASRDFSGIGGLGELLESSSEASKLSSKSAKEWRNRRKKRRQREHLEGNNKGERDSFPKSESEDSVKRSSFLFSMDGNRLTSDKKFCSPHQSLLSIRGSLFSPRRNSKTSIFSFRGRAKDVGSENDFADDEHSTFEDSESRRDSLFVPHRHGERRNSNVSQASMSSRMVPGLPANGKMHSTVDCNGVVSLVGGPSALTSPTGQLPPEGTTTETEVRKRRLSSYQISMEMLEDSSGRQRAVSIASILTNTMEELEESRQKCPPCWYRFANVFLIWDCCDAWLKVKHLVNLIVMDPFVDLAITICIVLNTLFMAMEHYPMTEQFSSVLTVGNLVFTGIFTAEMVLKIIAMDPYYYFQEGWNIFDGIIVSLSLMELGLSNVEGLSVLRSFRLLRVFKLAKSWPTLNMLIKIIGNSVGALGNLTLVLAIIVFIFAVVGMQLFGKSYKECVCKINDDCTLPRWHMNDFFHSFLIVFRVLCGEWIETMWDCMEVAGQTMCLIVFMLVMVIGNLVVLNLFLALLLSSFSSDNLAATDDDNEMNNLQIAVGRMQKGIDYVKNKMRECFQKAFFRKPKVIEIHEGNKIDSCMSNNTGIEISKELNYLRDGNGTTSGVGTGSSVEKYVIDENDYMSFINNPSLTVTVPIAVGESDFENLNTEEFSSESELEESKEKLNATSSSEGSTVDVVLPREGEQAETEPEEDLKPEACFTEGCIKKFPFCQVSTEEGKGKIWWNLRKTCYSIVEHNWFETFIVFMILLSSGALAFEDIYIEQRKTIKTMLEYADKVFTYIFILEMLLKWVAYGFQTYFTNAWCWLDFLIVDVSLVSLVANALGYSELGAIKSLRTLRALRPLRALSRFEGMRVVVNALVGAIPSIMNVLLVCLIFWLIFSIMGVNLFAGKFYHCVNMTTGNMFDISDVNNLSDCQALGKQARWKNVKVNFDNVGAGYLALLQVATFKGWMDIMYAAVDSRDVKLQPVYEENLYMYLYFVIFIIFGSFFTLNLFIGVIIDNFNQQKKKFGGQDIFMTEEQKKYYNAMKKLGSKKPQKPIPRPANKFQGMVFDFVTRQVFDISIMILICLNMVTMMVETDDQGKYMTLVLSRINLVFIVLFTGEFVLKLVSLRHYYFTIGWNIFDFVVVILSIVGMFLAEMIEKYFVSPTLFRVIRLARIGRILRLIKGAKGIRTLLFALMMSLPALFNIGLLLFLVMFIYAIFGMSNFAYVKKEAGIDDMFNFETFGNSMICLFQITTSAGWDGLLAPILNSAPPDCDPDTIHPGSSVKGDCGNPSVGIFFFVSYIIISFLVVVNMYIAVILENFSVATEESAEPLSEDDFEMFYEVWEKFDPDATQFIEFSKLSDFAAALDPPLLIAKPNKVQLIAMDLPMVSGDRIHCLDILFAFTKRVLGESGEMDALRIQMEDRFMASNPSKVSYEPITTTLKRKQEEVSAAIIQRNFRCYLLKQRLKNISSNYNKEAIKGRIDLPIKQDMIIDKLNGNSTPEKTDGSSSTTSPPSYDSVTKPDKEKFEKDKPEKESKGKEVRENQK

hNav1.7, sequence (Q15858 whole entry): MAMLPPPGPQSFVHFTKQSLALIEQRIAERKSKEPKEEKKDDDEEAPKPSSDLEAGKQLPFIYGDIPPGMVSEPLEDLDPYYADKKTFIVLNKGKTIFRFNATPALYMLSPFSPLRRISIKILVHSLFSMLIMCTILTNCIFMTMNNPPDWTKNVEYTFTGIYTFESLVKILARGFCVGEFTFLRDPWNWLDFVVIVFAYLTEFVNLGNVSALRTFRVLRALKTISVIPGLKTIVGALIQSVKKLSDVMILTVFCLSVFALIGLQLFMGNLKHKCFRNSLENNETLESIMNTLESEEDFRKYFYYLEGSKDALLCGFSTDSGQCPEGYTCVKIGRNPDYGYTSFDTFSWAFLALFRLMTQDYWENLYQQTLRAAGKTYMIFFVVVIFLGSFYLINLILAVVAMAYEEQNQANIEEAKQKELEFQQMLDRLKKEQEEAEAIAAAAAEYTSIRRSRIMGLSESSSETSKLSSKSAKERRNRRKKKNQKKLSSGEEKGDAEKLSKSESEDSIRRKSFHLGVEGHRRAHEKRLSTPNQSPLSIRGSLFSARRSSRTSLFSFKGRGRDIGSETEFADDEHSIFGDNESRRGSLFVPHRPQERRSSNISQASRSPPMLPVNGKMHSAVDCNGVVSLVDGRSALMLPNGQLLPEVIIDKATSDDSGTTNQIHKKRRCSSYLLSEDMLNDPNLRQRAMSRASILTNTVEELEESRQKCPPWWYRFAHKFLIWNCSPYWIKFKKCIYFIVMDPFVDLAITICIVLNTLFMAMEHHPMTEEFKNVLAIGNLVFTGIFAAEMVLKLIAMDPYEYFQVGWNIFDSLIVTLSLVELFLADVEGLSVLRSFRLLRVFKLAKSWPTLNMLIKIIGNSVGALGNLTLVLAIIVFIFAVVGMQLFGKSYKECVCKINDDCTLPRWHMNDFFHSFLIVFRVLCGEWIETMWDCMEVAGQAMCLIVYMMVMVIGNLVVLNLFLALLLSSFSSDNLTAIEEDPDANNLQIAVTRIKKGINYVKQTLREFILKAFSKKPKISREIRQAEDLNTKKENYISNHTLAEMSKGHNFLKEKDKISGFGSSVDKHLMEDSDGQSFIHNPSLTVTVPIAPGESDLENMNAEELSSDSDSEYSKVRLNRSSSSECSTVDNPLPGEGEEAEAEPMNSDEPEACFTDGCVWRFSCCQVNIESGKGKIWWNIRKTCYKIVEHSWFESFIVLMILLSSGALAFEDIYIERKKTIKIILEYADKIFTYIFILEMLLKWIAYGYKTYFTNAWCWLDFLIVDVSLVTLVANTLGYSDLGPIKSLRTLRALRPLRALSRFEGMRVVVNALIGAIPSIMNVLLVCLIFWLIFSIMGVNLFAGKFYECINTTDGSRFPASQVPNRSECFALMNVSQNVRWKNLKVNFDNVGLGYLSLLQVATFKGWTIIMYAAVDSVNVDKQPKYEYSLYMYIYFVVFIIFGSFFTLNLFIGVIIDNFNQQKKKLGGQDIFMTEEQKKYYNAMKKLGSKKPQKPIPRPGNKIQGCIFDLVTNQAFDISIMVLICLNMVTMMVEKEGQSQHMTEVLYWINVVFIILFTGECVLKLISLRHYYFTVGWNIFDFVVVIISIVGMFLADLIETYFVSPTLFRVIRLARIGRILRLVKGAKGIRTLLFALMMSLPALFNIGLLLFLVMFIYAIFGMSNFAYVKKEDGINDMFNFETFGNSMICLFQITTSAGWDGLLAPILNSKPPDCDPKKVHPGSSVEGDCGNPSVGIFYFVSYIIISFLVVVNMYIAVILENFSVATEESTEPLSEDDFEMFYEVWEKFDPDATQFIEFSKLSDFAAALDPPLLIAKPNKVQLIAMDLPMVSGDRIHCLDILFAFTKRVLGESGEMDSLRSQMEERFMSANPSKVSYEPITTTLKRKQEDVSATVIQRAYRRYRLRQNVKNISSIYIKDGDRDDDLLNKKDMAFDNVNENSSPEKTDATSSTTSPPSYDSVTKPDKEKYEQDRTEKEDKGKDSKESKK

Consider `CC[C@H](C)[C@H](NC(=O)[C@H](Cc1ccc(O)cc1)NC(=O)[C@H](CCCCN)NC(=O)[C@H](CCCNC(=N)N)NC(=O)[C@@H]1CSSC[C@@H]2NC(=O)[C@H](C)NC(=O)[C@H](CCCNC(=N)N)NC(=O)[C@H](CCCCN)NC(=O)[C@H](CO)NC(=O)[C@H](CC(=O)O)NC(=O)[C@@H]3CSSC[C@H](NC(=O)[C@H](CCC(=O)O)NC(=O)[C@H](CC(C)C)NC(=O)CNC(=O)[C@H](CCC(=O)O)NC(=O)[C@H](CSSC[C@H](NC(=O)[C@@H](N)Cc4ccc(O)cc4)C(=O)N[C@@H](CCC(N)=O)C(=O)N[C@@H](CCCCN)C(=O)N[C@@H](Cc4c[nH]c5ccccc45)C(=O)N[C@@H](CCSC)C(=O)N[C@@H](CC(N)=O)C(=O)N[C@@H]([C@@H](C)O)C(=O)N3)NC2=O)C(=O)N[C@@H](CCCCN)C(=O)N[C@@H](CC(C)C)C(=O)N[C@@H](Cc2c[nH]c3ccccc23)C(=O)N1)C(N)=O` [compound 215], for which the IC50 is 5 µM at hNav1.7, > 7 µM on hNav1.5, 6.1 µM at hNav1.4 and > 7 µM at hNav1.3. Also, the Nav1.4/Nav1.7 at hNav1.4 turned out to be 1.

As to `CCC[C@@H]1NC(=O)[C@H](Cc2c[nH]c3ccccc23)NC(=O)[C@H](CCCCN)NC(=O)[C@H](CCC(N)=O)NC(=O)[C@@H](NC(=O)[C@@H](N)Cc2ccc(O)cc2)CSSC[C@@H]2NC(=O)[C@@H]3CSSC[C@@H](C(=O)N[C@@H](CCCNC(=N)N)C(=O)N[C@@H](CCCCN)C(=O)N[C@H](C(=O)N[C@H](C(N)=O)[C@@H](C)CC)[C@@H](C)CC)NC(=O)[C@H](Cc4c[nH]c5ccccc45)NC(=O)[C@H](CC(C)C)NC(=O)[C@H](CCCCN)NC(=O)[C@H](CSSC[C@H](NC(=O)[C@H]([C@@H](C)O)NC(=O)[C@H](Cc4c[nH]c5ccccc45)NC1=O)C(=O)N[C@@H](CC(=O)O)C(=O)N[C@@H](CO)C(=O)N[C@@H](CCCCN)C(=O)N[C@@H](CCCNC(=N)N)C(=O)N[C@@H](C)C(=O)N3)NC(=O)[C@H](CCC(=O)O)NC(=O)[C@H](CC(C)C)NC(=O)CNC(=O)[C@H](CCC(=O)O)NC2=O` [compound 111], the IC50 at hNav1.7 was 0.69 µM; on hNav1.5, 9.2 µM; on hNav1.4, > 5 µM; on hNav1.3 it was > 5 µM. The Nav1.4/Nav1.7 on hNav1.4 is on record as 7.

Regarding `CCC[C@@H]1NC(=O)[C@H](CCSC)NC(=O)[C@H](Cc2c[nH]c3ccccc23)NC(=O)[C@H](CCCCN)NC(=O)[C@H](CCC(N)=O)NC(=O)[C@@H](NC(=O)[C@@H](N)Cc2ccc(O)cc2)CSSC[C@@H]2NC(=O)[C@@H]3CSSC[C@@H](C(=O)N[C@@H](CCCNC(=N)N)C(=O)N[C@@H](CCCCN)C(=O)N[C@@H](Cc4ccc(O)cc4)C(=O)N[C@H](C(N)=O)[C@@H](C)CC)NC(=O)[C@H](Cc4c[nH]c5ccccc45)NC(=O)[C@H](CC(C)C)NC(=O)[C@H](CCCCN)NC(=O)[C@H](CSSC[C@H](NC(=O)[C@H]([C@@H](C)O)NC1=O)C(=O)N[C@@H](CC(=O)O)C(=O)N[C@@H](CO)C(=O)N[C@@H](CCCCN)C(=O)N[C@@H](CCCNC(=N)N)C(=O)N[C@@H](C)C(=O)N3)NC(=O)[C@H](CCC(=O)O)NC(=O)[C@H](CC(C)C)NC(=O)CNC(=O)[C@H](CCC(=O)O)NC2=O` [compound 212], the IC50 is 4.5 µM on hNav1.7, > 7 µM on hNav1.5, > 7 µM on hNav1.4 and > 7 µM on hNav1.3.

On to `CCC[C@@H]1NC(=O)[C@H](CCCCN)NC(=O)[C@H](CCC(N)=O)NC(=O)[C@@H](NC(=O)[C@@H](N)Cc2ccc(O)cc2)CSSC[C@@H]2NC(=O)[C@@H]3CSSC[C@@H](C(=O)N[C@@H](CCCNC(=N)N)C(=O)N[C@@H](CCCCN)C(=O)N[C@@H](Cc4ccc(O)cc4)C(=O)N[C@H](C(N)=O)[C@@H](C)CC)NC(=O)[C@H](Cc4c[nH]c5ccccc45)NC(=O)[C@H](CC(C)C)NC(=O)[C@H](CCCCN)NC(=O)[C@H](CSSC[C@H](NC(=O)[C@H]([C@@H](C)O)NC(=O)[C@H](Cc4c[nH]c5ccccc45)NC(=O)[C@H](CCSC)NC1=O)C(=O)N[C@@H](CC(=O)O)C(=O)N[C@@H](CO)C(=O)N[C@@H](CCCCN)C(=O)N[C@@H](CCCNC(=N)N)C(=O)N[C@@H](C)C(=O)N3)NC(=O)[C@H](CCC(=O)O)NC(=O)[C@H](CC(C)C)NC(=O)CNC(=O)[C@H](CCC(=O)O)NC2=O` [compound 198], for which the IC50 at hNav1.7 is 3.3 µM; at hNav1.5, > 5 µM; at hNav1.4, > 5 µM; at hNav1.3, > 5 µM.

On to `CSCC[C@@H]1NC(=O)[C@H](Cc2c[nH]c3ccccc23)NC(=O)[C@H](CCCCN)NC(=O)[C@H](CCC(N)=O)NC(=O)[C@@H](NC(=O)[C@@H](N)Cc2ccc(O)cc2)CSSC[C@@H]2NC(=O)[C@@H]3CSSC[C@@H](C(=O)N[C@@H](CCCNC(=N)N)C(=O)N[C@@H](CCCCN)C(=O)N[C@@H](Cc4ccc(O)cc4)C(=O)N[C@@H](CCC(=O)O)C(N)=O)NC(=O)[C@H](Cc4c[nH]c5ccccc45)NC(=O)[C@H](CC(C)C)NC(=O)[C@H](CCCCN)NC(=O)[C@H](CSSC[C@H](NC(=O)[C@H]([C@@H](C)O)NC(=O)[C@H](Cc4c[nH]c5ccccc45)NC1=O)C(=O)N[C@@H](CC(=O)O)C(=O)N[C@@H](CO)C(=O)N[C@@H](CCCCN)C(=O)N[C@@H](CCCNC(=N)N)C(=O)N[C@@H](C)C(=O)N3)NC(=O)[C@H](CCC(=O)O)NC(=O)[C@H](CC(C)C)NC(=O)CNC(=O)[C@H](CCC(=O)O)NC2=O` [compound 245], for which the IC50 at hNav1.7 was 4.7 µM; at hNav1.5, > 5 µM; on hNav1.4, > 5 µM; on hNav1.3 it was > 5 µM.

Take `CC[C@H](C)[C@H](NC(=O)[C@H](Cc1ccc(O)cc1)NC(=O)[C@H](CCCCN)NC(=O)[C@H](CCCNC(=N)N)NC(=O)[C@@H]1CSSC[C@@H]2NC(=O)[C@H](C)NC(=O)[C@H](CCCNC(=N)N)NC(=O)[C@H](CCCCN)NC(=O)[C@H](CO)NC(=O)[C@H](CC(=O)O)NC(=O)[C@@H]3CSSC[C@H](NC(=O)[C@H](CCC(=O)O)NC(=O)[C@H](CC(C)C)NC(=O)CNC(=O)[C@H](CCC(=O)O)NC(=O)[C@H](CSSC[C@H](NC(=O)[C@@H](N)Cc4ccc(O)cc4)C(=O)N[C@@H](CCC(N)=O)C(=O)N[C@@H](CCCCN)C(=O)N[C@@H](Cc4c[nH]c5ccccc45)C(=O)N[C@@H](CCSC)C(=O)N[C@@H](Cc4c[nH]c5ccccc45)C(=O)N[C@@H]([C@@H](C)O)C(=O)N3)NC2=O)C(=O)N[C@@H](CCCCN)C(=O)N[C@@H](CC(C)C)C(=O)N[C@@H](CC(C)C)C(=O)N1)C(N)=O` [compound 224]: the IC50 on hNav1.7, on hNav1.5, at hNav1.4 and on hNav1.3 was > 5 µM throughout.

As to `CC[C@H](C)[C@H](NC(=O)[C@H](Cc1ccc(O)cc1)NC(=O)[C@H](CCCCN)NC(=O)[C@H](CCCNC(=N)N)NC(=O)[C@@H]1CSSC[C@@H]2NC(=O)[C@H](C)NC(=O)[C@H](CCCNC(=N)N)NC(=O)[C@H](CCCCN)NC(=O)[C@H](CO)NC(=O)[C@H](CC(=O)O)NC(=O)[C@@H]3CSSC[C@H](NC(=O)[C@H](CCC(=O)O)NC(=O)[C@H](CC(C)C)NC(=O)CNC(=O)[C@H](CCC(=O)O)NC(=O)[C@H](CSSC[C@H](NC(=O)[C@@H](N)Cc4ccc(O)cc4)C(=O)N[C@@H](CCC(N)=O)C(=O)N[C@@H](CCCCN)C(=O)N[C@@H](Cc4c[nH]c5ccccc45)C(=O)N[C@@H](CCSC)C(=O)N[C@@H](Cc4c[nH]c5ccccc45)C(=O)N[C@@H]([C@@H](C)O)C(=O)N3)NC2=O)C(=O)N[C@@H](CCCCN)C(=O)N[C@@H](CC(C)C)C(=O)N[C@@H](CC(N)=O)C(=O)N1)C(N)=O` [compound 229], the IC50 at hNav1.7, at hNav1.5, on hNav1.4 and at hNav1.3 was > 5 µM in each case.

Consider `CCCC[C@@H]1NC(=O)[C@H](CC(C)C)NC(=O)[C@H](CCCCN)NC(=O)[C@@H]2CSSC[C@@H]3NC(=O)[C@H]([C@@H](C)O)NC(=O)[C@H](Cc4c[nH]c5ccccc45)NC(=O)[C@H](CCSC)NC(=O)[C@H](Cc4c[nH]c5ccccc45)NC(=O)[C@H](CCCCN)NC(=O)[C@H](CCC(N)=O)NC(=O)[C@@H](NC(=O)[C@@H](N)Cc4ccc(O)cc4)CSSC[C@H](NC(=O)[C@H](CSSC[C@@H](C(=O)N[C@@H](CCCNC(=N)N)C(=O)N[C@@H](CCCCN)C(=O)N[C@@H](Cc4ccc(O)cc4)C(=O)N[C@H](C(N)=O)[C@@H](C)CC)NC1=O)NC(=O)[C@H](C)NC(=O)[C@H](CCCNC(=N)N)NC(=O)[C@H](CCCCN)NC(=O)[C@H](CO)NC(=O)[C@H](CC(=O)O)NC3=O)C(=O)N[C@@H](CCC(=O)O)C(=O)NCC(=O)N[C@@H](CC(C)C)C(=O)N[C@@H](CCC(=O)O)C(=O)N2` [compound 225], for which the IC50 on hNav1.7, on hNav1.5, at hNav1.4 and at hNav1.3 was > 5 µM each time.

Take `CC[C@H](C)[C@H](NC(=O)[C@H](Cc1ccc(O)cc1)NC(=O)[C@H](CCCCN)NC(=O)[C@H](CCCNC(=N)N)NC(=O)[C@@H]1CSSC[C@@H]2NC(=O)[C@H](C)NC(=O)[C@H](CCCNC(=N)N)NC(=O)[C@H](CCCCN)NC(=O)[C@H](CO)NC(=O)[C@H](CC(=O)O)NC(=O)[C@@H]3CSSC[C@H](NC(=O)[C@H](CCC(=O)O)NC(=O)[C@H](CC(C)C)NC(=O)CNC(=O)[C@H](CCC(=O)O)NC(=O)[C@H](CSSC[C@H](NC(=O)[C@@H](N)Cc4ccc(O)cc4)C(=O)N[C@@H](CCC(N)=O)C(=O)N[C@@H](CCCCN)C(=O)N[C@@H](Cc4c[nH]c5ccccc45)C(=O)N[C@@H](CCSC)C(=O)N[C@@H](Cc4c[nH]c5ccccc45)C(=O)N[C@@H]([C@@H](C)O)C(=O)N3)NC2=O)C(=O)N[C@@H](CCCCN)C(=O)N[C@@H](CC(C)C)C(=O)N[C@@H](CCCCN)C(=O)N1)C(N)=O` [compound 228]: the IC50 on hNav1.7 is 2.7 µM; at hNav1.5, > 5 µM; at hNav1.4, > 5 µM; at hNav1.3, > 5 µM.

The term IC50 denotes the concentration at which inhibition is half-maximal.
